Assay results: US6414142B1, “Process for preparing potassium clavulanate” (SmithKline Beecham Corporation, priority 1996, dated 2002)

Columns and labels:
Assay type in all cases: physicochemical
[1] = Flowability of potassium clavulanate crystalline forms; settings: crystalline form comparison, Example 5
[2] = Particle size distribution of potassium clavulanate crystalline forms; settings: crystalline form comparison, Example 5
[3] = Stability / shelf-life compared with prior art crystalline forms; settings: compared to rosette, needle and starburst forms; generally lower polymer level

Row | SMILES | Flowabiiity [1] | Particle Size Distribution [2] | stability and shelf-life [3]
1 | O=C(O)[C@H]1/C(=C/CO)O[C@@H]2CC(=O)N21 [Needles/rods, potassium clavulanate] | 3.4 | 34.1-67.3 microns | –
2 | O=C(O)[C@H]1/C(=C/CO)O[C@@H]2CC(=O)N21 [Rosettes, potassium clavulanate] | 6.1 | 34.8- 66.4 microns | –
3 | O=C(O)[C@H]1/C(=C/CO)O[C@@H]2CC(=O)N21 [Rosette-like Starbursts, potassium clavulanate] | 4.8 | 35.1- 97.9 microns | greater stability
4 | O=C(O)[C@H]1/C(=C/CO)O[C@@H]2CC(=O)N21 [Starbursts/Broken Starbursts, potassium clavulanate] | – | 33.5-70.5 microns | –
